How the values were obtained:
[1] = target: T1, ΔF508-CFTR (Homo sapiens, UniProt P13569, DEL508-508); assay: CFTR cell surface levels using HRP-tagged ΔF508-CFTR expressing CFBE cells, intrinsic corrector capacity; type: cell-based; set-up: % Activation: concentration or dose not given beside the values; settings: HRP-tagged ΔF508-CFTR expressing CFBE41o- cells, compound alone (intrinsic corrector capacity), 20 hours at 33° C.; for EC50: read-out: EC50
T1 construct: host or cells: CFBE41o-, doxycycline-inducible
T1 sequence (P13569 with tags, fused parts or gaps DEL508-508): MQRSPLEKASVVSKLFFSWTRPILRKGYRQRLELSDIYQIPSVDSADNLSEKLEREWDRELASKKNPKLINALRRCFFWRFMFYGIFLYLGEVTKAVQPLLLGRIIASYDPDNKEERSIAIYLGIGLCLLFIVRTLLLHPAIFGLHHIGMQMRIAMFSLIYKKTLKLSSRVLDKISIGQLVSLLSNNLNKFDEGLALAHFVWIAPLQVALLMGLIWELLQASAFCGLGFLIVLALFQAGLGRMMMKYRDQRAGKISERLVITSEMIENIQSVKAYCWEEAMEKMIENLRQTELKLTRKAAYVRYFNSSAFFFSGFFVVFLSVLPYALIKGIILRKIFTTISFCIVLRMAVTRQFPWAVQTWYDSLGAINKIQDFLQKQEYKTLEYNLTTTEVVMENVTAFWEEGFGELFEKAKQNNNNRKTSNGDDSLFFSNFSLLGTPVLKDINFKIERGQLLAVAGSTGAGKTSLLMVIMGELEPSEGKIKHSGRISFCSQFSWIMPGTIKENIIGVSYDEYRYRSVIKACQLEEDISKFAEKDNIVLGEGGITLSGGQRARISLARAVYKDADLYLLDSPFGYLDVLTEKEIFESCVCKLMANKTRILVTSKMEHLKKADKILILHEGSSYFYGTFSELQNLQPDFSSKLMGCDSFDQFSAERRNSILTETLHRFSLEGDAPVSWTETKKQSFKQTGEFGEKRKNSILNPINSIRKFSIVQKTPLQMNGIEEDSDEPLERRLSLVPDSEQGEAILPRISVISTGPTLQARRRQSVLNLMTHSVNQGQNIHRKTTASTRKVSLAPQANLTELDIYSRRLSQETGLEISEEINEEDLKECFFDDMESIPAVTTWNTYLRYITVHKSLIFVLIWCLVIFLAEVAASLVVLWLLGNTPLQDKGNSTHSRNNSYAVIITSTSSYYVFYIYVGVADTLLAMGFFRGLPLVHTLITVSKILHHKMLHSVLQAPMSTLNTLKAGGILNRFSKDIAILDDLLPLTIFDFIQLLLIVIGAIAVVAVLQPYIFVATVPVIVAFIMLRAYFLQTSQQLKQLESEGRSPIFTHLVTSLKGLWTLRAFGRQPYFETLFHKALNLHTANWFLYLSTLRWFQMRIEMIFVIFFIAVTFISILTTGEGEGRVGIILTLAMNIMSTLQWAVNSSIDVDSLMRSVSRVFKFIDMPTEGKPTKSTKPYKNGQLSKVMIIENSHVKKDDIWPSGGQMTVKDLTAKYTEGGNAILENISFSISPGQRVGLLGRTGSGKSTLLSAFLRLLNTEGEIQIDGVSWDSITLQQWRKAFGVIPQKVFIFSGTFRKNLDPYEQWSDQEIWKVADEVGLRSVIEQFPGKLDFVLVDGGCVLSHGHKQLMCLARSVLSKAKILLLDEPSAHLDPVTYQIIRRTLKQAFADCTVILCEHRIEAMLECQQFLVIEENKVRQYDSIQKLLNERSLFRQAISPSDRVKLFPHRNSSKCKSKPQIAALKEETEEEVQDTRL
Procedure, shortened: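 Surface ΔF508-CFTR was measured as HRP chemiluminescence from an extracellular-loop-4 tag, expressed as percent activity between DMSO and a […] corrector control.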

[2] = target: T1, ΔF508-CFTR; assay: CFTR cell surface levels using HRP-tagged ΔF508-CFTR expressing CFBE cells, in the presence of a co-corrector; type: cell-based; settings: HRP-tagged ΔF508-CFTR CFBE cells, in the presence of 3 μM co-corrector; for EC50: read-out: EC50
Procedure, shortened: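 Chemiluminescent read-out of surface HRP (15 min, dark) after PBS washes. Activity is normalized as 100×(sample−DMSO)/(3 μM co-corrector alone−DMSO).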

Compound: CC(C)c1nn(-c2ccc(F)cc2)c2nc(C(=O)NS(C)(=O)=O)cc(OCC3CCCO3)c12 (stereo not drawn) [Compound 295, 1-(4-fluorophenyl)-N-(methanesulfonyl)-4-[(oxolan-2-yl)methoxy]-3-(propan-2-yl)-1H-pyrazolo[3,4-b]pyridine-6-carboxamide]
- % Activation [1]: 129.6%
- EC50 [1]: 1050 nM
- % Activation [2]: 298.07%
- EC50 [2]: 697 nM

Compound: COCCS(=O)(=O)NC(=O)c1cc(OCC2CCOCC2)c2c(C3CCC3)nn(-c3ccccc3)c2n1 [Compound 315, 3-cyclobutyl-N-(2-methoxyethanesulfonyl)-4-[(oxan-4-yl)methoxy]-1-phenyl-1H-pyrazolo[3,4-b]pyridine-6-carboxamide]
- % Activation [1]: 154.87%
- EC50 [1]: 218 nM
- % Activation [2]: 315.5%
- EC50 [2]: 102 nM

Compound: CC1(C)CC(c2nn(-c3ccccc3)c3nc(C(=O)NS(C)(=O)=O)cc(-c4ccc(N5CCC(C#N)CC5)nc4)c23)C1 [Compound 196, 4-[6-(4-cyanopiperidin-1-yl)pyridin-3-yl]-3-(3,3-dimethylcyclobutyl)-N-(methanesulfonyl)-1-phenyl-1H-pyrazolo[3,4-b]pyridine-6-carboxamide]
- % Activation [1]: 188.47%
- EC50 [1]: 339 nM
- % Activation [2]: 387.1%
- EC50 [2]: 231 nM

Compound: CS(=O)(=O)NC(=O)c1cc(N2CCC(O)(CC#N)CC2)c2c(C3CCC3)nn(-c3ccccc3)c2n1 [Compound 326, 4-[4-(cyanomethyl)-4-hydroxypiperidin-1-yl]-3-cyclobutyl-N-(methanesulfonyl)-1-phenyl-1H-pyrazolo[3,4-b]pyridine-6-carboxamide]
- % Activation [1]: 167.1%
- EC50 [1]: 2380 nM
- % Activation [2]: 325.3%
- EC50 [2]: 730 nM

Compound: CCCN(CC)S(=O)(=O)NC(=O)c1cc(N2CCC(COC)CC2)c2c(C3CCC3)nn(-c3ccccc3)c2n1 [Compound 392, 3-cyclobutyl-N-[ethyl(propyl)sulfamoyl]-4-[4-(methoxymethyl)piperidin-1-yl]-1-phenyl-1H-pyrazolo[3,4-b]pyridine-6-carboxamide]
- % Activation [1]: 240.05%
- EC50 [1]: 150 nM
- % Activation [2]: 421.4%
- EC50 [2]: 139 nM

Compound: CS(=O)(=O)NC(=O)c1cc(N2CCC(N3CCC(C#N)C3)CC2)c2c(C3CCC3)nn(-c3ccc(F)cc3)c2n1 (stereo not drawn) [Compound 565, 4-[4-(3-cyanopyrrolidin-1-yl)piperidin-1-yl]-3-cyclobutyl-1-(4-fluorophenyl)-N-(methanesulfonyl)-1H-pyrazolo[3,4-b]pyridine-6-carboxamide]
- % Activation [1]: 373.15%
- EC50 [1]: 182 nM
- % Activation [2]: 637.53%
- EC50 [2]: 69.9 nM

Compound: CS(=O)(=O)NC(=O)c1cc(-c2ccc(N3CCC(C#N)CC3)nc2)c2c(OC3CCOC3)nn(-c3ccccc3)c2n1 (stereo not drawn) [Compound 277, 4-[6-(4-cyanopiperidin-1-yl)pyridin-3-yl]-N-(methanesulfonyl)-3-[(oxolan-3-yl)oxy]-1-phenyl-1H-pyrazolo[3,4-b]pyridine-6-carboxamide]
- % Activation [1]: 155.4%
- EC50 [1]: 251 nM
- % Activation [2]: 355.4%
- EC50 [2]: 127 nM

Compound: COCC1CCN(c2cc(C(=O)NS(=O)(=O)CCNC(=O)OCc3ccccc3)nc3c2c(C2CCC2)nn3-c2ccccc2)CC1 [Compound 373, benzyl [2-({3-cyclobutyl-4-[4-(methoxymethyl)piperidin-1-yl]-1-phenyl-1H-pyrazolo[3,4-b]pyridine-6-carbonyl}sulfamoyl)ethyl]carbamate]
- % Activation [1]: 368.2%
- EC50 [1]: 73 nM
- % Activation [2]: 580.5%
- EC50 [2]: 85.8 nM

Compound: COCC1CCN(c2cc(C(=O)NS(=O)(=O)CCO)nc3c2c(C2CCC2)nn3-c2ccccc2)CC1 [Compound 366, 3-cyclobutyl-N-(2-hydroxyethanesulfonyl)-4-[4-(methoxymethyl)piperidin-1-yl]-1-phenyl-1H-pyrazolo[3,4-b]pyridine-6-carboxamide]
- % Activation [1]: 264%
- EC50 [1]: 298 nM
- % Activation [2]: 443.7%
- EC50 [2]: 82.7 nM

Compound: CC(C)Oc1nn(C2CCCCC2)c2nc(C(=O)NS(C)(=O)=O)cc(-c3ccc(CN4CC5CN(C)CC5C4)cc3)c12 (stereo not drawn) [Compound 636, 1-cyclohexyl-N-(methanesulfonyl)-4-{4-[(5-methylhexahydropyrrolo[3,4-c]pyrrol-2(1H)-yl)methyl]phenyl}-3-[(propan-2-yl)oxy]-1H-pyrazolo[3,4-b]pyridine-6-carboxamide]
- % Activation [1]: 182.7%
- EC50 [1]: 573 nM
- % Activation [2]: 388.85%
- EC50 [2]: 434 nM

Compound: COCC1CCN(c2cc(C(=O)NS(=O)(=O)CCC(=O)N(C)C)nc3c2c(C2CCC2)nn3-c2ccccc2)CC1 [Compound 298, 3-cyclobutyl-N-[3-(dimethylamino)-3-oxopropane-1-sulfonyl]-4-[4-(methoxymethyl)piperidin-1-yl]-1-phenyl-1H-pyrazolo[3,4-b]pyridine-6-carboxamide]
- % Activation [1]: 312.9%
- EC50 [1]: 282 nM
- % Activation [2]: 481.2%
- EC50 [2]: 81 nM

Compound: CCS(=O)(=O)NC(=O)c1cc(-c2ccc(N3CCOCC3)cc2)c2c(C(C)C)nn(C3CCCCC3)c2n1 [Compound 45, 1-cyclohexyl-N-(ethanesulfonyl)-4-[4-(morpholin-4-yl)phenyl]-3-(propan-2-yl)-1H-pyrazolo[3,4-b]pyridine-6-carboxamide]
- % Activation [1]: 210.97%
- EC50 [1]: 327 nM
- % Activation [2]: 438.4%
- EC50 [2]: 203 nM

Compound: Cc1nn(C2CCCCC2)c2nc(C(=O)NS(=O)(=O)C3CC3)cc(-c3ccc(N4CCOCC4)cc3)c12 [Compound 239, 1-cyclohexyl-N-(cyclopropanesulfonyl)-3-methyl-4-[4-(morpholin-4-yl)phenyl]-1H-pyrazolo[3,4-b]pyridine-6-carboxamide]
- % Activation [1]: 184.6%
- EC50 [1]: 999 nM
- % Activation [2]: 431.55%
- EC50 [2]: 1240 nM

Compound: CCOC(=O)N1CCC(NS(=O)(=O)NC(=O)c2cc(OCC3CCOCC3)c3c(C4CCC4)nn(-c4ccccc4)c3n2)CC1 [Compound 356, ethyl 4-[({3-cyclobutyl-4-[(oxan-4-yl)methoxy]-1-phenyl-1H-pyrazolo[3,4-b]pyridine-6-carbonyl}sulfamoyl)amino]piperidine-1-carboxylate]
- % Activation [1]: 188.25%
- EC50 [1]: 105 nM
- % Activation [2]: 372%
- EC50 [2]: 48.3 nM

Compound: COCC1CCN(c2cc(C(=O)NS(=O)(=O)C3CCNCC3)nc3c2c(C2CCC2)nn3-c2ccccc2)CC1 [Compound 368, 3-cyclobutyl-4-[4-(methoxymethyl)piperidin-1-yl]-1-phenyl-N-(piperidine-4-sulfonyl)-1H-pyrazolo[3,4-b]pyridine-6-carboxamide]
- % Activation [1]: 185%
- EC50 [1]: 1360 nM
- % Activation [2]: 350.23%
- EC50 [2]: 361 nM

Compound: CC(C)Oc1nn(C2CCCCC2)c2nc(C(=O)NS(C)(=O)=O)cc(-c3ccc(C(=O)N4CC(N(C)C)C4)cc3)c12 [Compound 640, 1-cyclohexyl-4-{4-[3-(dimethylamino)azetidine-1-carbonyl]phenyl}-N-(methanesulfonyl)-3-[(propan-2-yl)oxy]-1H-pyrazolo[3,4-b]pyridine-6-carboxamide]
- % Activation [1]: 203.62%
- EC50 [1]: 175 nM
- % Activation [2]: 416.48%
- EC50 [2]: 107 nM

Compound: COCCOCC1(F)CCN(c2cc(C(=O)NS(C)(=O)=O)nc3c2c(C2CCC2)nn3-c2ccccc2)CC1 [Compound 502, 3-cyclobutyl-4-{4-fluoro-4-[(2-methoxyethoxy)methyl]piperidin-1-yl}-N-(methanesulfonyl)-1-phenyl-1H-pyrazolo[3,4-b]pyridine-6-carboxamide]
- % Activation [1]: 214.2%
- EC50 [1]: 345 nM
- % Activation [2]: 383.8%
- EC50 [2]: 177 nM

Compound: CC(C)c1nn(C2CCCCC2)c2nc(C(=O)NS(C)(=O)=O)cc(-c3ccc(N4CCC(C)(C#N)CC4)nc3)c12 [Compound 98, 4-[6-(4-cyano-4-methylpiperidin-1-yl)pyridin-3-yl]-1-cyclohexyl-N-(methanesulfonyl)-3-(propan-2-yl)-1H-pyrazolo[3,4-b]pyridine-6-carboxamide]
- % Activation [1]: 154%
- EC50 [1]: 556 nM
- % Activation [2]: 360.15%
- EC50 [2]: 393 nM

Compound: CN(C)S(=O)(=O)NC(=O)c1cc(-c2ccc(CN3CCOCC3)cc2)c2c(OC3CCC3)nn(C3CCCCC3)c2n1 [Compound 481, 3-(cyclobutyloxy)-1-cyclohexyl-N-(dimethylsulfamoyl)-4-{4-[(morpholin-4-yl)methyl]phenyl}-1H-pyrazolo[3,4-b]pyridine-6-carboxamide]
- % Activation [1]: 114.2%
- EC50 [1]: 278 nM
- % Activation [2]: 285.65%
- EC50 [2]: 154 nM

Compound: COCC1CCN(c2cc(C(=O)NS(C)(=O)=O)nc3c2c(C(C)C)nn3-c2cccc(C)c2)CC1 [Compound 156, N-(methanesulfonyl)-4-[4-(methoxymethyl)piperidin-1-yl]-1-(3-methylphenyl)-3-(propan-2-yl)-1H-pyrazolo[3,4-b]pyridine-6-carboxamide]
- % Activation [1]: 411%
- EC50 [1]: 439 nM
- % Activation [2]: 636.47%
- EC50 [2]: 360 nM

Compound: COCCN(C)C1CCN(c2cc(C(=O)NS(=O)(=O)N(C)C)nc3c2c(C2CCC2)nn3-c2ccc(F)cc2)CC1 [Compound 591, 3-cyclobutyl-N-(dimethylsulfamoyl)-1-(4-fluorophenyl)-4-{4-[(2-methoxyethyl)(methyl)amino]piperidin-1-yl}-1H-pyrazolo[3,4-b]pyridine-6-carboxamide]
- % Activation [1]: 189.1%
- EC50 [1]: 795 nM
- % Activation [2]: 384%
- EC50 [2]: 1590 nM
